According to patent US7439266B2, “Malononitrile compound and use thereof” (Sumitomo Chemical Company, Limited, priority 2002, dated 2008):
Like-named read-outs stand apart in the source and are kept apart here.

Legend:
Musca domestics = assay: Test Example 4: filter paper with sucrose bait, female housefly imagoes; format: in vivo, Musca domestica; conditions: 0.7 ml on filter paper with 30 mg sucrose, ten female imagoes, after 24 hours, read-out: rate of dead pests
Method: The formulation obtained according to Formulation Example 5 using the present invention compounds (1), (7), (13)-(17), (20), (28), (32), (36), (37), (39), (44)-(46), (53), (55), (57)-(62), (64)-(70) and (71) respectively, was diluted with water so that the active ingredient concentration came to 500 ppm to prepare a pesticidal solution for test.
(§1) On the bottom of a polyethylene cup having a diameter of 5.5 cm, a filter paper having the same diameter was laid, and 0.7 ml of the above pesticidal solution for test was added dropwise on the filter paper, followed by putting 30 mg of sucrose on it uniformly as a bait. Ten female Musca domestics imagoes were set free in the polyethylene cup and covered it with a lid. After 24 hours, the number of surviving Musca domestics was examined and the rate of dead pests was calculated.

Culex pipiens pallens = assay: Test Example 6: last-instar mosquito larvae in treated water; format: in vivo; conditions: 24 h, read-out: rate of dead pests
Method: The formulation obtained according to Formulation Example 5 using the present invention compounds (7), (8)-(11), (14)-(16), (20), (21), (24)-(26), (28), (29), (31), (37)-(39), (44)-(47), (51), (53), (55), (57), (58), (60)-(67), (69), (70) and (71) respectively, was diluted with water so that the active ingredient concentration came to 500 ppm to prepare a pesticidal solution for test.
0.7 ml of above pesticidal solution for test was added to 100 ml of ion exchanged water (active ingredient concentration: 3.5 ppm). Twenty last-instar larvae of Culex pipiens pallens were set free in the solution. After one day, the number of surviving Culex pipiens pallens was examined and the rate of dead pests was calculated.

Aphis gossypii = assay: Test Example 3: spray on cucumber plant, Aphis gossypii; format: in vivo; conditions: 500 ppm, sprayed 20 ml/cup on cucumber plant with about twenty Aphis gossypii; sixth day after the treatment
Method: The formulation obtained according to Formulation Example 5 using the present invention compounds (23) was diluted with water so that the active ingredient concentration came to 500 ppm to prepare a pesticidal solution for test.
At the same time, molding Aisai 1 (available from KATAOKA TIKKARIN Co., Ltd.) was put into a 90 ml polyethylene cup, and seeded with cucumber. The plant was grown until the first true leaf was developed, on which about twenty Aphis gossypii were allowed to be parasitic. On the next day, the above pesticidal solution for test was sprayed at a ratio of 20 ml/cup on the cucumber plant. On the sixth day after the application, the number of Aphis gossypii was examined.

Blattella germanica = assay: Test Example 5: filter paper with sucrose bait, male German cockroach imagoes; format: in vivo; conditions: 144 h, 0.7 ml on filter paper with 30 mg sucrose, two male imagoes, after 6 days, read-out: rate of dead pests
Method: The formulation obtained according to Formulation Example 5 using the present invention compounds (1), (25), (28), (36), (39), (40), (44)-(46), (47), (57), (58), (64), (65) and (67) respectively, was diluted with water so that the active ingredient concentration came to 500 ppm to prepare a pesticidal solution for test.
as §1, with “Two male Blattalla germanica” for “Ten female Musca domestics”, “6 days,” for “24 hours,”, “Blattella germanica” for “Musca domestics”

Nilaparvata lugens = assay: Test Example 1: spray on rice plants, Nilaparvata lugens larvae, 2000 ppm; format: in vivo; conditions: sprayed 20 ml/cup on rice plants, thirty first-instar larvae released, sixth day after release, 25° C.
Method: The formulation obtained according to Formulation Example 5 using the present invention compound (74) and the reference compound (1) respectively, was diluted with water so that the active ingredient concentration came to 2000 ppm to prepare a pesticidal solution for test. At the same time, 50 grams of molding Bonsoru 2 (available from Sumitomo Chemical Co., Ltd.) was put into a polyethylene cup, and 10 to 15 seeds of rice were planted in the polyethylene cup. The rice plants were grown until the second foliage leaves developed and then cut into the same height of 5 cm. The pesticidal solution for test prepared above was sprayed at the rate of 20 ml/cup to these rice plants. After the pesticidal solution sprayed onto the rice plants were dried, they were put into a plastic cup for escape prevention of test pests, and thirty first-instar larvae of Nilaparvata lugens were set free on the rice plants, followed by covering the plastic cup with a lid. Then the plastic cup was left in a greenhouse (25° C.). On the sixth day after the release of larvae of Nilaparvata lugens, the number of parasitic Nilaparvata lugens on the rice plants was examined.

[1] = 0.7 ml of 500 ppm solution in 100 ml water (active ingredient concentration: 3.5 ppm), twenty last-instar larvae, after one day

SMILES	pest or weed control at 500 ppm (Musca domestics) [%]	pest or weed control at 3.5 µg/mL (Culex pipiens pallens; [1]) [%]	pest or weed control at 500 ppm (Blattella germanica) [%]	also measured
CCOC(=O)C(C)C(C#N)(C#N)CCC(F)(F)F (centres unmarked) [present invention compound (7), 2-[1-(ethoxycarbonyl)ethyl]-2-(3,3,3-trifluoropropyl)malononitrile]	≥ 90	100	–	–
N#CC(C#N)(CCC(F)(F)F)CC(=O)OC1CCCCC1 [present invention compound (20), 2-(cyclohexyloxycarbonylmethyl)-2-(3,3,3-trifluoropropyl)malononitrile]	≥ 90	100	–	–
CC(C)(C)OC(=O)CC(C#N)(C#N)CCC#N [present invention compound (21), 2-(tert-butoxycarbonylmethyl)-2-(2-cyanoethyl)malononitrile]	–	–	–	pest or weed control at 3.5 µg/mL (Culex pipiens pallens): 100%
CC(C)(C)OC(=O)CC(C#N)(C#N)CCF [present invention compound (23), 2-(tert-butoxycarbonylmethyl)-2-(2-fluoroethyl)malononitrile]	–	–	–	number of parasitic Aphis gossypii (Aphis gossypii): ≤ 3
CC(CCl)CC(C#N)(C#N)CC(=O)OC(C)(C)C (centres unmarked) [present invention compound (25), 2-(tert-butoxycarbonylmethyl)-2-(3-chloro-2-methylpropyl)malononitrile]	–	–	100	–
CCCCC(C#N)(C#N)CC(=O)OC(C)(C)C [present invention compound (28), 2-(tert-butoxycarbonylmethyl)-2-butylmalononitrile]	≥ 90	100	100	–
CCCCCC(C#N)(C#N)CC(=O)OC(C)(C)C [present invention compound (29), 2-(tert-butoxycarbonylmethyl)-2-pentylmalononitrile]	–	100	–	–
CC(C)CCC(C#N)(C#N)CC(=O)OC(C)(C)C [present invention compound (31), 2-(tert-butoxycarbonylmethyl)-2-(3-methylbutyl)malononitrile]	–	100	–	–
CCC(C)C(C#N)(C#N)CC(=O)OC(C)(C)C (centres unmarked) [present invention compound (32), 2-(tert-butoxycarbonylmethyl)-2-(1-methylpropyl)malononitrile]	≥ 90	–	–	–
CC=CCC(C#N)(C#N)CC(=O)OC(C)(C)C [present invention compound (36), 2-(tert-butoxycarbonylmethyl)-2-(2-butenyl)malononitrile]	≥ 90	–	100	–
CCCC(C#N)(C#N)CC(=O)OC(C)(C)C [present invention compound (37), 2-(tert-butoxycarbonylmethyl)-2-propylmalononitrile]	≥ 90	–	–	–
CCCCC(C#N)(C#N)C(C)C(=O)OC(C)(C)C (centres unmarked) [present invention compound (39), 2-[1-(tert-butoxycarbonyl)ethyl]-2-butylmalononitrile]	≥ 90	–	100	–
CC(C)(C)OC(=O)CC(C#N)(C#N)CCC(F)=C(F)F [present invention compound (40), 2-(tert-butoxycarbonylmethyl)-2-(3,4,4-trifluoro-3-butenyl)malononitrile]	–	–	100	–
CC(C)(C)SC(=O)CC(C#N)(C#N)CCC(F)(F)F [present invention compound (47), 2-[(tert-butylthio)carbonylmethyl]-2-(3,3,3-trifluoropropyl)malononitrile]	–	–	100	–
CC(C)(C)OC(=O)CC(C#N)(C#N)CCCC(F)(F)F [present invention compound (51), 2-(tert-butoxycarbonylmethyl)-2-(4,4,4-trifluorobutyl)malononitrile]	–	100	–	–
CC(C)(C)COC(=O)CC(C#N)(C#N)CCC(F)(F)F [present invention compound (53), 2-[(2,2-dimethylpropoxy)carbonylmethyl]-2-(3,3,3-trifluoropropyl)malononitrile]	≥ 90	100	–	–
CC(CCl)OC(=O)CC(C#N)(C#N)CCC(F)(F)F (centres unmarked) [present invention compound (55), 2-[(2-chloro-1-methylethoxy)carbonylmethyl]-2-(3,3,3-trifluoropropyl)malononitrile]	≥ 90	100	–	–
C#CC(C)(C)OC(=O)CC(C#N)(C#N)CCC(F)(F)F [present invention compound (57), 2-[(1,1-dimethyl-2-propynyl)oxycarbonylmethyl]-2-(3,3,3-trifluoropropyl)malononitrile]	–	100	100	–
C#CC(C)(CC)OC(=O)CC(C#N)(C#N)CCC(F)(F)F (centres unmarked) [present invention compound (58), 2-((1-ethyl-1-methyl-2-propynyloxycarbonyl)methyl)-2-(3,3,3-trifluoropropyl)malononitrile]	–	100	100	–
C#CC(C)(C)OC(=O)C(C)C(C#N)(C#N)CCC(F)(F)F (centres unmarked) [present invention compound (64), 2-(1-[(1,1-dimethyl-2-propynyl)oxycarbonyl]ethyl)-2-(3,3,3-trifluoropropyl)malononitrile]	–	–	100	–
C#CC(C)(CC)OC(=O)C(C)C(C#N)(C#N)CCC(F)(F)F (centres unmarked) [present invention compound (65), 2-(1-[(1-ethyl-1-methyl-2-propynyl)oxycarbonyl]ethyl)-2-(3,3,3-trifluoropropyl)malononitrile]	–	–	100	–
C=CC(C)(C)OC(=O)C(C)C(C#N)(C#N)CCC(F)(F)F (centres unmarked) [present invention compound (67), 2-(1-[(1,1-dimethyl-2-propenyl)oxycarbonyl]ethyl)-2-(3,3,3-trifluoropropyl)malononitrile]	–	–	100	–
CC(C)CC(C)OC(=O)C(C)C(C#N)(C#N)CCC(F)(F)F (centres unmarked) [present invention compound (69), 2-(1-[(1,3-dimethylbutoxy)carbonyl]ethyl)-2-(3,3,3-trifluoropropyl)malononitrile]	–	100	–	–
CC(C(=O)OCC(C)(C)C)C(C#N)(C#N)CCC(F)(F)F (centres unmarked) [present invention compound (70), 2-(1-[(2,2dimethylpropoxy)carbonyl]ethyl)-2-(3,3,3-trifluoropropyl)malononitrile]	–	100	–	–
COC(=O)C(C)C(C#N)(C#N)CCC(F)(F)F (centres unmarked) [present invention compound (71), 2-[1-(methoxycarbonyl)ethyl]-2-(3,3,3-trifluoropropyl)malononitrile]	≥ 90	100	–	–
CCOC(=O)CC(C)(C#N)C#N [present invention compound (74), 2-(ethoxycarbonylmethyl)-2-methylmalononitrile]	–	–	–	number of parasitic Nilaparvata lugens (Nilaparvata lugens): ≤ 3
CCOC(=O)CCC(C#N)C#N [reference compound (1), 2-[2-(ethoxycarbonyl)ethyl]malononitrile, reference compound]	–	–	–	number of parasitic Nilaparvata lugens (Nilaparvata lugens): ≥ 20
